Results on 1 compound are retold here after US5760022A, “Pharmaceutical composition with improved bioavailability of inositol phosphate” (Perstorp AB, priority 1994, dated 1998).

The structures appear in SMILES notation. Where a name gives a salt, the structure may show the parent alone.

This data set can be described thus: bioavailability of IP3 in pigs: concentration of IP3 in blood samples and AUC after intravenous injection, intraduodenal/oral formulation and oral sodium salt. Particulars: pig, in vivo. As for the experimental part:
The blood samples were assayed for the content of IP3 and these measurements were used for the calculation of the reference data as 100% of the substance is introduced into the blood stream after an intravenous injection. Another five pigs were given the composition comprising the mixture of 2,3-dihydroxypropyl octanoate and IP3 as an intraduodenal dosing. The animals were treated with Atropin and anaesthetized with Hypnodil®/Sedaperone® whereafter a laparotomy was carried out. Blood samples were collected at the time intervals mentioned above and the concentration of IP3 was determined in each sample. By calculating the area under the curve (AUC) from a graph where the concentration versus time is shown and comparing the obtained value with a similar calculation from the data after intravenous injection of the substance the bioavailability for this specific formulation is obtained.
Blood samples were collected at the same time intervals as above and the concentration of IP3 was determined. Following a similar procedure the AUC was determined.
Blood samples were collected and the concentration of IP3 were determined.

On to `O=P(O)(O)O[C@@H]1[C@H](OP(=O)(O)O)[C@H](O)[C@@H](O)[C@H](O)[C@H]1OP(=O)(O)O` [sodium salt of IP3, D-myo-inositol-1,2,6-trisphosphate], for which the “Normalized AUC (%)” value came out at 3%. In addition, where the note is “iv”, the “Normalized AUC (%)” value worked out at 100%, the concentration at 0.25 h stood at 53700 nM, the concentration at 0.5 h was 40000 nM and the concentration at 1 h was 21600 nM. Moreover, under “iv”, the concentration at 1.5 h turned out to be 12100 nM, the concentration at 4 h was determined as 2600 nM and the concentration at 8 h was 600 nM. Also, the “conc IP3” value (iv, 0 min) is 0 nM. In addition, where the note is “po”, the concentration at 0.5 h was 600 nM, the concentration at 1.5 h turned out to be 500 nM, the concentration at 2 h was determined as 600 nM and the concentration at 4 h came out at 400 nM. Under “po”, the concentration at 6 h was 400 nM. Also, the “conc IP3” value (po, 0 min) was 0 nM. Besides, the “conc IP3” value (po, 480 min) worked out at 0 nM.
